# Laboratory results taken from US20220267352A1, “RAPAMYCIN ANALOGS AND USES THEREOF” (Anakuria Therapeutics, Inc., priority 2021, published 2022).
# pIC50: −log10 of the molar value.
# Experiments:
# Type in all cases: cell-based
# [1] = test system: pS6K1 T389 and pAkt S473 in PC3 cells; assay: Western blot based pS6K1 and pAKT assay at 24 and 48 hour timepoints
# Method: Example 57: Western Blot Based pS6K1 and pAKT Assay at 24 and 48 Hour Timepoints
# Assay Protocol: • 1. Seed six well plate with 500,000 PC3 cells per well and incubate for 20˜24 hour. • 2. Add compounds into the cell plate. Incubate for 24 to 48 hours. • 4. Plate is placed on ice and the media is removed via aspiration. The wells are washed with 1 mL of 1x PBS and then fully aspirated. • 5. 110 μL of 1% Triton Lysis Buffer is added and each well is scraped vigorously. • 6. Cell homogenates are transferred to 1.5 mL eppendorf tubes on ice and spun down at 4° C. for 10 minutes at 10,000 rpm. • 7. Protein concentration of resulting cell lysates were quantified utilizing a Bradford assay and the samples run analyzed via Western blot on 4-12% Bis/Tris gels with 1×MES buffer. • 8. The gels were transferred onto membranes at 50V for 100 minutes, blocked with Odyssey Blocking buffer for 30 minutes then incubated overnight with primary antibody (pS6K1 T389 Rabbit or pAkt S473 Rabbit) overnight at 4° C. on a rotator. • 9. The membranes were washed 3× with TBS-T with a 5 minute incubation between each wash then incubated with secondary antibody (LiCor IRDye 800 Donkey Anti Rabbit) for at least 30 minutes. • 10. The membranes were washed 3× with TBS-T with a 5 minute incubation between each wash. • 11. The gels were then incubated for 5 minutes with PBS at room temperature then imaged using a Li-Cor.
# Compounds that are not selective by comparing pS6K1 and pAKT IC50 by kinase assays are indicated by “NO” in the “mTORC1 selective @ 90 min” column of Table 4. […] Compounds that are not selective at the 24 hrs mark are indicated by “NO” in the “mTORC1 selective @ 24 hrs” column of Table 4. “N/A” stands for “not assayed” and “N/C” stands for “not calculated”.
# [2] = test system: p-p70 S6 Kinase (Thr389) in MCF-7 cells; assay: AlphaLISA Ultra pS6K1 assay; settings: Homo sapiens, 1.5 h; MCF7 cells, 90 min
# How it was run: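 MCF-7 cells seeded 20–24 h, given fresh medium 2 h, then treated with compounds 90 min (0.5% DMSO final). Cells lysed, lysates frozen at −80 °C, then Thr389-phosphorylated S6K1 detected by AlphaLISA Ultra with acceptor beads 2 h, then donor beads 2 h.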
# [3] = test system: p-Akt 1/2/3 (Ser473) in MCF-7 cells; assay: AlphaLISA Ultra pAKT assay; settings: Homo sapiens, 1.5 h; MCF7 cells, 90 min
# How it was run: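 MCF-7 cells (16,000˜20,000 per well in 36 μL medium) were seeded in Corning 3701 plates for 20˜24 hour, refreshed with new medium for 90 minutes, then given 12 μL of 4× compound (0.5% final DMSO). Cells were lysed with 2× lysis buffer, and lysate was analyzed by AlphaLISA Ultra pAKT using acceptor and donor beads, read on an EnSpire reader.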
# mTORC1 over mTORC2 = mTORC1 over mTORC2 selectivity by comparing pS6K1 and pAKT IC50; settings: by comparing pS6K1 and pAKT IC50, 90 min
# How it was run: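 MCF-7 cells were treated with compounds (0.5% final DMSO) for 90 minutes in one protocol and 2 hours in the other, then lysed. Phospho-signal in lysates was read by bead-based donor/acceptor proximity assay. pS6K1 and pAKT IC50 values were compared to judge mTORC1 over mTORC2 selectivity, at 90 min and at 24 hrs.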
Structure (SMILES),mTORC1 selective @ 24 hrs [1],pIC50 [2],pIC50 [3],mTORC1 selective @ 90 min (mTORC1 over mTORC2)
"COCCO[C@@H]1CC[C@@H](C[C@@H](C)[C@@H]2CC(=O)[C@H](C)/C=C(\C)[C@@H](O)[C@@H](OC)C(=O)[C@H](C)C[C@H](C)/C=C/C=C/C=C(\C)[C@@H](OCc3cnccn3)C[C@@H]3CC[C@@H](C)[C@@](O)(O3)C(=O)C(=O)N3CCCC[C@H]3C(=O)O2)C[C@H]1OC [I-57, (1R,9S,12S,15R,16E,18R,19R,21R,23S,24E,26E,28E,30S,32S,35R)-1,18-dihydroxy-19-methoxy-12-[(1R)-2-[(1S,3R,4R)-3-methoxy-4-(2-methoxyethoxy)cyclohexyl]-1-methyl-ethyl]-15,17,21,23,29,35-hexamethyl-30-(pyrazin-2-ylmethoxy)-11,36-dioxa-4-azatricyclo[30.3.1.0^4,9]hexatriaconta-16,24,26,28-tetraene-2,3,10,14,20-pentone]",Yes,,,
"CO[C@@H]1C[C@H](C[C@@H](C)[C@@H]2CC(=O)[C@H](C)/C=C(\C)[C@@H](O)[C@@H](OC)C(=O)[C@H](C)C[C@H](C)/C=C/C=C/C=C(\C)[C@@H](OCCOC3COC3)C[C@@H]3CC[C@@H](C)[C@@](O)(O3)C(=O)C(=O)N3CCCC[C@H]3C(=O)O2)CC[C@H]1OC(=O)N(C)CCN1CCOCC1 [I-18, [(43S,45R,47R)-4-[(2R)-2-[(28E,30E,32E,33E,39R,40S,41R,42R,44S,46S,48S,49S,51R,52R,62R)-51,62-dihydroxy-52-methoxy-39,40,41,42,53,54-hexamethyl-48-[2-(oxetan-3-yloxy)ethoxy]-55,56,57,58,59-pentaoxo-76,77-dioxa-64-azatricyclohexatriaconta-28,30,32(53),33(54)-tetraen-49-yl]propyl]-47-methoxy-45-cyclohexyl] N-methyl-N-(2-morpholinoethyl)carbamate]",Yes,,,
"CO[C@@H]1C[C@H](C[C@@H](C)[C@@H]2CC(=O)[C@H](C)/C=C(\C)[C@@H](O)[C@@H](OC)C(=O)[C@H](C)C[C@H](C)/C=C/C=C/C=C(\C)[C@@H](OCc3cnccn3)C[C@@H]3CC[C@@H](C)[C@@](O)(O3)C(=O)C(=O)N3CCCC[C@H]3C(=O)O2)CC[C@H]1OCCO [I-59, (1R,9S,12S,15R,16E,18R,19R,21R,23S,24E,26E,28E,30S,32S,35R)-1,18-dihydroxy-12-[(1R)-2-[(1S,3R,4R)-4-(2-hydroxyethoxy)-3-methoxy-cyclohexyl]-1-methyl-ethyl]-19-methoxy-15,17,21,23,29,35-hexamethyl-30-(pyrazin-2-ylmethoxy)-11,36-dioxa-4-azatricyclo[30.3.1.0^4,9]hexatriaconta-16,24,26,28-tetraene-2,3,10,14,20-pentone]",Yes,,,
"CO[C@@H]1C[C@H](C[C@@H](C)[C@@H]2CC(=O)[C@H](C)/C=C(\C)[C@@H](O)[C@@H](OC)C(=O)[C@H](C)C[C@H](C)/C=C/C=C/C=C(\C)[C@@H](OCC3COCCO3)C[C@@H]3CC[C@@H](C)[C@@](O)(O3)C(=O)C(=O)N3CCCC[C@H]3C(=O)O2)CC[C@H]1OC(=O)NCCN1CCOCC1 (stereo partly drawn) [I-103, [(42S,44R,46R)-4-[(2R)-2-[(28E,30E,32E,33E,38R,39S,40R,41R,43S,45S,47S,48S,50R,51R,61R)-47-(1,4-dioxan-2-ylmethoxy)-50,61-dihydroxy-51-methoxy-38,39,40,41,52,53-hexamethyl-54,55,56,57,58-pentaoxo-76,77-dioxa-64-azatricyclohexatriaconta-28,30,32(52),33(53)-tetraen-48-yl]propyl]-46-methoxy-44-cyclohexyl] N-(2-morpholinoethyl)carbamate]",,8.00 to 9.00,≤ 6.00,Yes
"COCCOCCO[C@@H]1C[C@@H]2CC[C@@H](C)[C@@](O)(O2)C(=O)C(=O)N2CCCC[C@H]2C(=O)O[C@H]([C@H](C)C[C@@H]2CC[C@@H](O)[C@H](OC)C2)CC(=O)[C@H](C)/C=C(\C)[C@@H](OC)[C@@H](OC)C(=O)[C@H](C)C[C@H](C)/C=C/C=C/C=C/1C [I-48, (23E,25E,27E,28E,34R,35S,36R,37R,39S,41S,43R,44S,45R,46R,55R)-55-hydroxy-44-[(1R)-2-[(1S,3R,4R)-4-hydroxy-3-methoxy-cyclohexyl]-1-methyl-ethyl]-45,46-dimethoxy-43-[2-(2-methoxyethoxy)ethoxy]-34,35,36,37,47,48-hexamethyl-64,65-dioxa-56-azatricyclohexatriaconta-23,25,27(47),28(48)-tetraene-49,50,51,52,53-pentone]",,8.00 to 9.00,≤ 6.00,Yes
"CO[C@@H]1C[C@H](C[C@@H](C)[C@@H]2CC(=O)[C@H](C)/C=C(\C)[C@@H](O)[C@@H](OC)C(=O)[C@H](C)C[C@H](C)/C=C/C=C/C=C(\C)[C@H](OCCOC3COC3)C[C@@H]3CC[C@@H](C)[C@@](O)(O3)C(=O)C(=O)N3CCCC[C@H]3C(=O)O2)CC[C@H]1OC(=O)NCCN1CCOCC1 [I-20, [(42S,44R,46R)-4-[(2R)-2-[(27E,29E,31E,32E,38R,39S,40R,41R,43S,45S,47R,48S,50R,51R,61R)-50,61-dihydroxy-51-methoxy-38,39,40,41,52,53-hexamethyl-47-[2-(oxetan-3-yloxy)ethoxy]-54,55,56,57,58-pentaoxo-75,76-dioxa-64-azatricyclohexatriaconta-27,29,31(52),32(53)-tetraen-48-yl]propyl]-46-methoxy-44-cyclohexyl] N-(2-morpholinoethyl)carbamate]",,8.00 to 9.00,≤ 6.00,Yes
"CO[C@@H]1C[C@H](C[C@@H](C)[C@@H]2CC(=O)[C@H](C)/C=C(\C)[C@@H](O)[C@@H](OC)C(=O)[C@H](C)C[C@H](C)/C=C/C=C/C=C(\C)[C@H](OCCOC3COC3)C[C@@H]3CC[C@@H](C)[C@@](O)(O3)C(=O)C(=O)N3CCCC[C@H]3C(=O)O2)CC[C@H]1OC(F)F [I-104, (23E,25E,27E,28E,32R,33S,34R,35R,37S,39S,41R,42S,44R,45R,55R)-42-[(1R)-2-[(1S,3R,4R)-4-(difluoromethoxy)-3-methoxy-cyclohexyl]-1-methyl-ethyl]-44,55-dihydroxy-45-methoxy-32,33,34,35,46,47-hexamethyl-41-[2-(oxetan-3-yloxy)ethoxy]-65,66-dioxa-56-azatricyclohexatriaconta-23,25,27(46),28(47)-tetraene-48,49,50,51,52-pentone]",,7.00 to 8.00,≤ 6.00,Yes
"CO[C@@H]1C[C@H](C[C@@H](C)[C@@H]2CC(=O)[C@H](C)/C=C(\C)[C@@H](O)[C@@H](OC)C(=O)[C@H](C)C[C@H](C)/C=C/C=C/C=C(\C)[C@H](OCC3COCCO3)C[C@@H]3CC[C@@H](C)[C@@](O)(O3)C(=O)C(=O)N3CCCC[C@H]3C(=O)O2)CC[C@H]1OCCCO (stereo partly drawn) [I-92, (24E,26E,28E,29E,35R,36S,37R,38R,40S,42S,44R,45S,47R,48R,57R)-44-(1,4-dioxan-2-ylmethoxy)-47,57-dihydroxy-45-[(1R)-2-[(1S,3R,4R)-4-(3-hydroxypropoxy)-3-methoxy-cyclohexyl]-1-methyl-ethyl]-48-methoxy-35,36,37,38,49,50-hexamethyl-69,70-dioxa-58-azatricyclohexatriaconta-24,26,28(49),29(50)-tetraene-51,52,53,54,55-pentone]",,7.00 to 8.00,≤ 6.00,Yes
"CO[C@@H]1/C(C)=C/[C@@H](C)C(=O)C[C@@H]([C@H](C)C[C@@H]2CC[C@@H](OC)[C@H](OC)C2)OC(=O)[C@@H]2CCCCN2C(=O)C(=O)[C@]2(O)O[C@@H](CC[C@H]2C)CC(OCCOCCN(C)C)/C(C)=C/C=C/C=C/[C@@H](C)C[C@@H](C)C(=O)[C@@H]1OC (stereo partly drawn) [I-95, (25E,27E,29E,30E,36R,37S,38R,39R,41S,43S,46S,47R,48R,57R)-46-[(1R)-2-[(1S,3R,4R)-3,4-dimethoxycyclohexyl]-1-methyl-ethyl]-45-[2-[2-(dimethylamino)ethoxy]ethoxy]-57-hydroxy-47,48-dimethoxy-36,37,38,39,49,50-hexamethyl-66,67-dioxa-58-azatricyclohexatriaconta-25,27,29(49),30(50)-tetraene-51,52,53,54,55-pentone]",,6.00 to 7.00,≤ 6.00,Yes
